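Values below derive from 48-hour exposures of cells grown in 96-well plates, with endpoints linearly interpolated between the two concentrations bracketing the appropriate inhibition level. TGI marks complete inhibition of growth.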
What was measured:
Assay in all cases: NCI anticancer screen, dose series, 48 h
LOX IMVI melanoma = test system: LOX IMVI melanoma
A498 renal = test system: A498 renal
IGROV1 ovarian = test system: IGROV1 ovarian
OVCAR-4 ovarian = test system: OVCAR-4 ovarian
A549 NSCLC = test system: A549 NSCLC
M14 melanoma = test system: M14 melanoma
HS 578T breast = test system: HS 578T breast
MCF7 breast = test system: MCF7 breast
K-562 leukemia = test system: K-562 leukemia
NCI-H23 lung = test system: NCI-H23 lung
UO-31 renal = test system: UO-31 renal
U251 CNS = test system: U251 CNS
HCT-15 colon = test system: HCT-15 colon
HOP-62 NSCLC = test system: HOP-62 NSCLC
DU-145 prostate = test system: DU-145 prostate
MOLT-4 leukemia = test system: MOLT-4 leukemia
CCRF-CEM leukemia = test system: CCRF-CEM leukemia
UACC-62 melanoma = test system: UACC-62 melanoma
UACC-257 melanoma = test system: UACC-257 melanoma
SR leukemia = test system: SR leukemia
ACHN renal = test system: ACHN renal
RXF 393 renal = test system: RXF 393 renal
SF-295 CNS = test system: SF-295 CNS
786-0 renal = test system: 786-0 renal
KM12 colon = test system: KM12 colon
SF-268 CNS = test system: SF-268 CNS
HCC-2998 colon = test system: HCC-2998 colon
HCT-116 colon = test system: HCT-116 colon
SW-620 colon = test system: SW-620 colon
PC-3 prostate = test system: PC-3 prostate
NCI/ADR-RES ovarian = test system: NCI/ADR-RES ovarian
SK-MEL-5 melanoma = test system: SK-MEL-5 melanoma
SNB-19 CNS = test system: SNB-19 CNS
OVCAR-3 ovarian = test system: OVCAR-3 ovarian
EKVX NSCLC = test system: EKVX NSCLC
RPMI-8226 leukemia = test system: RPMI-8226 leukemia
SN12C renal = test system: SN12C renal
NCI-H460 lung = test system: NCI-H460 lung
OVCAR-5 ovarian = test system: OVCAR-5 ovarian
MDA-N = test system: MDA-N
COLO 205 colon = test system: COLO 205 colon
SK-MEL-28 melanoma = test system: SK-MEL-28 melanoma
CAKI-1 renal = test system: CAKI-1 renal
MDA-MB-435 = test system: MDA-MB-435
HOP-92 NSCLC = test system: HOP-92 NSCLC
MDA-MB-231 breast = test system: MDA-MB-231 breast
HT29 colon = test system: HT29 colon
NCI-H522 lung = test system: NCI-H522 lung
SF-539 CNS = test system: SF-539 CNS
MALME-3M melanoma = test system: MALME-3M melanoma
T-47D breast = test system: T-47D breast
SNB-75 CNS = test system: SNB-75 CNS
HL-60(TB) leukemia = test system: HL-60(TB) leukemia
SK-OV-3 ovarian = test system: SK-OV-3 ovarian
SK-MEL-2 melanoma = test system: SK-MEL-2 melanoma
NCI-H226 lung = test system: NCI-H226 lung
TK-10 renal = test system: TK-10 renal
BT-549 breast = test system: BT-549 breast
OVCAR-8 ovarian = test system: OVCAR-8 ovarian

Cc1cccc(Nc2cn(CCOc3ccccc3)c(=O)[nH]c2=O)c1 was tested, and the TGI (LOX IMVI melanoma) was 94 µM, the TGI (A498 renal) was greater than 100 µM and the TGI (IGROV1 ovarian) was 54.9 µM. For the same molecule, the TGI (OVCAR-4 ovarian) was greater than 100 µM, the TGI (A549 NSCLC) was 61.9 µM and the TGI (M14 melanoma) was greater than 100 µM. The TGI (HS 578T breast) was greater than 100 µM, the TGI (MCF7 breast) was greater than 100 µM and the TGI (K-562 leukemia) was greater than 100 µM. For the same molecule, the TGI (NCI-H23 lung) was greater than 100 µM, the TGI (UO-31 renal) was greater than 100 µM and the TGI (U251 CNS) was greater than 100 µM. The TGI (HCT-15 colon) was greater than 100 µM, the TGI (HOP-62 NSCLC) was greater than 100 µM and the TGI (DU-145 prostate) was greater than 100 µM. For the same molecule, the TGI (MOLT-4 leukemia) was greater than 100 µM, the TGI (CCRF-CEM leukemia) was greater than 100 µM and the TGI (UACC-62 melanoma) was greater than 100 µM. For the same molecule, the TGI (UACC-257 melanoma) was greater than 100 µM, the TGI (SR leukemia) was greater than 100 µM and the TGI (ACHN renal) was greater than 100 µM. The TGI (RXF 393 renal) was greater than 100 µM, the TGI (SF-295 CNS) was greater than 100 µM and the TGI (786-0 renal) was greater than 100 µM. The TGI (KM12 colon) was greater than 100 µM, the TGI (SF-268 CNS) was greater than 100 µM and the TGI (HCC-2998 colon) was 91.6 µM. For the same molecule, the TGI (HCT-116 colon) was greater than 100 µM, the TGI (SW-620 colon) was greater than 100 µM and the TGI (PC-3 prostate) was 72.3 µM. The TGI (NCI/ADR-RES ovarian) was 9.06 µM, the TGI (SK-MEL-5 melanoma) was 70.2 µM and the TGI (SNB-19 CNS) was greater than 100 µM. It also gave a TGI (OVCAR-3 ovarian) of 52.8 µM, a TGI (EKVX NSCLC) of 39.8 µM and a TGI (RPMI-8226 leukemia) greater than 100 µM. The TGI (SN12C renal) was 81.7 µM, the TGI (NCI-H460 lung) was greater than 100 µM and the TGI (OVCAR-5 ovarian) was greater than 100 µM. For the same molecule, the TGI (MDA-N) was greater than 100 µM, the TGI (COLO 205 colon) was 36.8 µM and the TGI (SK-MEL-28 melanoma) was greater than 100 µM. The TGI (CAKI-1 renal) was greater than 100 µM, the TGI (MDA-MB-435) was greater than 100 µM and the TGI (HOP-92 NSCLC) was 84 µM.
Work on CCCCCOP(=O)(OCCCCC)C(NC(C)=O)(C(=O)OCC)C(F)(F)F (stereo not drawn) yielded a TGI (A498 renal) greater than 100 µM, a TGI (M14 melanoma) greater than 100 µM and a TGI (MDA-MB-231 breast) greater than 100 µM. The TGI (MCF7 breast) was greater than 100 µM, the TGI (K-562 leukemia) was greater than 100 µM and the TGI (UO-31 renal) was greater than 100 µM. For the same molecule, the TGI (HT29 colon) was greater than 100 µM, the TGI (U251 CNS) was greater than 100 µM and the TGI (HCT-15 colon) was greater than 100 µM. It also gave a TGI (NCI-H522 lung) greater than 100 µM, a TGI (HOP-62 NSCLC) greater than 100 µM and a TGI (DU-145 prostate) greater than 100 µM. It also gave a TGI (MOLT-4 leukemia) greater than 100 µM, a TGI (CCRF-CEM leukemia) greater than 100 µM and a TGI (UACC-62 melanoma) greater than 100 µM. The TGI (SR leukemia) was greater than 100 µM, the TGI (SF-539 CNS) was greater than 100 µM and the TGI (ACHN renal) was greater than 100 µM. It also gave a TGI (SF-268 CNS) greater than 100 µM, a TGI (HCC-2998 colon) greater than 100 µM and a TGI (HCT-116 colon) greater than 100 µM. It also gave a TGI (MALME-3M melanoma) greater than 100 µM, a TGI (T-47D breast) greater than 100 µM and a TGI (EKVX NSCLC) greater than 100 µM. For the same molecule, the TGI (RPMI-8226 leukemia) was greater than 100 µM, the TGI (SN12C renal) was greater than 100 µM and the TGI (SNB-75 CNS) was greater than 100 µM. For the same molecule, the TGI (HL-60(TB) leukemia) was greater than 100 µM, the TGI (MDA-N) was greater than 100 µM and the TGI (SK-MEL-28 melanoma) was greater than 100 µM. It also gave a TGI (MDA-MB-435) greater than 100 µM and a TGI (SK-OV-3 ovarian) greater than 100 µM.
CC(C)(C)[C@@H]1NC(=O)CN1C(=O)OCc1ccccc1 was tested, and the TGI (LOX IMVI melanoma) was greater than 100 µM, the TGI (A498 renal) was greater than 100 µM and the TGI (IGROV1 ovarian) was greater than 100 µM. For the same molecule, the TGI (OVCAR-4 ovarian) was greater than 100 µM, the TGI (A549 NSCLC) was greater than 100 µM and the TGI (M14 melanoma) was greater than 100 µM. It also gave a TGI (MDA-MB-231 breast) greater than 100 µM, a TGI (HS 578T breast) greater than 100 µM and a TGI (MCF7 breast) greater than 100 µM. The TGI (K-562 leukemia) was greater than 100 µM, the TGI (NCI-H23 lung) was greater than 100 µM and the TGI (UO-31 renal) was greater than 100 µM. For the same molecule, the TGI (HT29 colon) was greater than 100 µM, the TGI (SK-MEL-2 melanoma) was greater than 100 µM and the TGI (U251 CNS) was greater than 100 µM. For the same molecule, the TGI (HCT-15 colon) was greater than 100 µM, the TGI (NCI-H522 lung) was greater than 100 µM and the TGI (HOP-62 NSCLC) was greater than 100 µM. For the same molecule, the TGI (NCI-H226 lung) was greater than 100 µM, the TGI (DU-145 prostate) was greater than 100 µM and the TGI (MOLT-4 leukemia) was greater than 100 µM. It also gave a TGI (CCRF-CEM leukemia) greater than 100 µM, a TGI (UACC-62 melanoma) greater than 100 µM and a TGI (TK-10 renal) greater than 100 µM. The TGI (UACC-257 melanoma) was greater than 100 µM, the TGI (SR leukemia) was greater than 100 µM and the TGI (SF-539 CNS) was greater than 100 µM. For the same molecule, the TGI (ACHN renal) was greater than 100 µM, the TGI (RXF 393 renal) was greater than 100 µM and the TGI (SF-295 CNS) was greater than 100 µM. For the same molecule, the TGI (786-0 renal) was greater than 100 µM, the TGI (KM12 colon) was greater than 100 µM and the TGI (SF-268 CNS) was greater than 100 µM. For the same molecule, the TGI (HCC-2998 colon) was greater than 100 µM, the TGI (HCT-116 colon) was greater than 100 µM and the TGI (SW-620 colon) was greater than 100 µM. The TGI (BT-549 breast) was greater than 100 µM, the TGI (PC-3 prostate) was greater than 100 µM and the TGI (NCI/ADR-RES ovarian) was greater than 100 µM. The TGI (MALME-3M melanoma) was greater than 100 µM, the TGI (T-47D breast) was greater than 100 µM and the TGI (OVCAR-8 ovarian) was greater than 100 µM. The TGI (SK-MEL-5 melanoma) was greater than 100 µM, the TGI (SNB-19 CNS) was greater than 100 µM and the TGI (EKVX NSCLC) was greater than 100 µM. It also gave a TGI (RPMI-8226 leukemia) greater than 100 µM, a TGI (SN12C renal) greater than 100 µM and a TGI (SNB-75 CNS) greater than 100 µM. For the same molecule, the TGI (NCI-H460 lung) was greater than 100 µM, the TGI (HL-60(TB) leukemia) was greater than 100 µM and the TGI (OVCAR-5 ovarian) was greater than 100 µM. For the same molecule, the TGI (COLO 205 colon) was greater than 100 µM, the TGI (SK-MEL-28 melanoma) was greater than 100 µM and the TGI (MDA-MB-435) was greater than 100 µM. It also gave a TGI (SK-OV-3 ovarian) greater than 100 µM and a TGI (HOP-92 NSCLC) greater than 100 µM.

Source: PubChem BioAssay (NCI)
